Source: ChEMBL document CHEMBL3867460, “Identification of 4-(2-furanyl)pyrimidin-2-amines as Janus kinase 2 inhibitors” (Bioorg Med Chem, 2017)
pIC50: −log10 of the molar value.

Columns and labels:
[1] = target: T1, Tyrosine-protein kinase JAK3 (Homo sapiens, UniProt P52333)
T1 sequence (P52333 whole entry): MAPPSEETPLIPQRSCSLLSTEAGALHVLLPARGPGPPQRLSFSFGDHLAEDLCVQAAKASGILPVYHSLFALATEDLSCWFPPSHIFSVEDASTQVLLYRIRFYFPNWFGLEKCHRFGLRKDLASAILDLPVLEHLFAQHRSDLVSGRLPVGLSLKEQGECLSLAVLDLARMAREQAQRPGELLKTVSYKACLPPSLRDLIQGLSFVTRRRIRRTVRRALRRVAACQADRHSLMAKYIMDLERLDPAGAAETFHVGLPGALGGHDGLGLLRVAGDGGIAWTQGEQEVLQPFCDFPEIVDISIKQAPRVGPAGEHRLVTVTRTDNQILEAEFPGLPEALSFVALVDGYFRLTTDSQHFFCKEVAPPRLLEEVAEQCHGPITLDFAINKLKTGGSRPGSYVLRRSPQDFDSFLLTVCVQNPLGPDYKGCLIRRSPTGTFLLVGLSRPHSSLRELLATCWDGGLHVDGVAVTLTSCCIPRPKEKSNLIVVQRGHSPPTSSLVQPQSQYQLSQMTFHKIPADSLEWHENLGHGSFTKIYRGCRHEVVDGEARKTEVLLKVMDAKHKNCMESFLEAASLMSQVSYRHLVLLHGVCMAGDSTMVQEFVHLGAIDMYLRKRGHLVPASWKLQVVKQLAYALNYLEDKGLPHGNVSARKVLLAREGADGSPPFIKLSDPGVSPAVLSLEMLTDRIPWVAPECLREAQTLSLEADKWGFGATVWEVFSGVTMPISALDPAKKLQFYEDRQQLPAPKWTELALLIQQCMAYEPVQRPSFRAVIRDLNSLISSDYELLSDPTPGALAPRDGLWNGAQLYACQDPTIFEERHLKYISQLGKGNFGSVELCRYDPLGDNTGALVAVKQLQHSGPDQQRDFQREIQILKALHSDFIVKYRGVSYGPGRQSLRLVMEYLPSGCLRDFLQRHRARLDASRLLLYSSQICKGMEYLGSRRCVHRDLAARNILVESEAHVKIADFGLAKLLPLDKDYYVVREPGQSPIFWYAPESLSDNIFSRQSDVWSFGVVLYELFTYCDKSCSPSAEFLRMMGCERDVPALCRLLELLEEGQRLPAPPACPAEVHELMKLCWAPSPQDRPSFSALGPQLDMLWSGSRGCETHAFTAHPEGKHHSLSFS
Description: Inhibition of GST-tagged recombinant human cytoplasmic JAK3 expressed in baculovirus using TK-substrate-biotin as substrate preincubated for 5 mins followed by substrate addition after 30 mins by HTRF assay

[2] = target: Tyrosine-protein kinase JAK2 (Homo sapiens, UniProt O60674)
Description: Inhibition of GST-tagged recombinant human JAK2 expressed in baculovirus using TK-substrate-biotin as substrate preincubated for 5 mins followed by substrate addition after 30 mins by HTRF assay

Homo sapiens = species on record: Homo sapiens; test: Selectivity ratio of IC50 for human JAK3 expressed in baculovirus to IC50 for human JAK2 expressed in baculovirus
[3] = target: Tyrosine-protein kinase JAK2 (Homo sapiens, UniProt O60674, V617F)
[4] = target: Tyrosine-protein kinase SYK (Homo sapiens, UniProt P43405); test: Inhibition of SYK (unknown origin)

Sequence of Tyrosine-protein kinase JAK2 (Homo sapiens, UniProt O60674, V617F) (O60674 whole entry V617F): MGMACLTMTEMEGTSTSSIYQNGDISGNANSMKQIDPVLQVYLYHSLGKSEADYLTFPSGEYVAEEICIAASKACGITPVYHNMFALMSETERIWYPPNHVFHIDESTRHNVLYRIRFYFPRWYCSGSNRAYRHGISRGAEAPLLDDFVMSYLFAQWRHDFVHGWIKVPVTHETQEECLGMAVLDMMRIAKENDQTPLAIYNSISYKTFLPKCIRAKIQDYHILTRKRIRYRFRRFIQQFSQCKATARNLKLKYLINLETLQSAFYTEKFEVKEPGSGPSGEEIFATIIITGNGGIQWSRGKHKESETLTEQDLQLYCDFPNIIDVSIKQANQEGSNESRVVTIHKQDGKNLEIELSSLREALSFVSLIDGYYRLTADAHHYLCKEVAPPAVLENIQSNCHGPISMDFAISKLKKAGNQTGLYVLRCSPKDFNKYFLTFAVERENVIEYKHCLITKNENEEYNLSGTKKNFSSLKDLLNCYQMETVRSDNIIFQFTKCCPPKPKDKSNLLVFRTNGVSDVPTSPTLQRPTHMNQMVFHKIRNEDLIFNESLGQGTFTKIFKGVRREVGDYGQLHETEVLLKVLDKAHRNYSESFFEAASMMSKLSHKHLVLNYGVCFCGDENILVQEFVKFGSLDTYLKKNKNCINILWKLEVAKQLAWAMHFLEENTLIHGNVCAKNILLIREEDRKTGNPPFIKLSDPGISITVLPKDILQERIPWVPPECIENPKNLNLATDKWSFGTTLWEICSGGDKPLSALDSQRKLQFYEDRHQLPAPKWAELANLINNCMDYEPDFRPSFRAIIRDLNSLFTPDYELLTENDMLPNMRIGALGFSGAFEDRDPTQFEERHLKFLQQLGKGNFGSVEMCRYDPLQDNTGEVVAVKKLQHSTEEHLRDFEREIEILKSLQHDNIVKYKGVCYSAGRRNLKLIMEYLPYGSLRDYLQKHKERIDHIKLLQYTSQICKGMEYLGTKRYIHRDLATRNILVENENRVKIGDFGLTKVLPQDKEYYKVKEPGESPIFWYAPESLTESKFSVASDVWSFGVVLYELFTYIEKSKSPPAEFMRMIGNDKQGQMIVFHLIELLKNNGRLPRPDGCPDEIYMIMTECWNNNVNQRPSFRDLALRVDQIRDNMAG
Sequence of Tyrosine-protein kinase JAK2 (Homo sapiens, UniProt O60674) (O60674 whole entry): as the sequence (O60674 whole entry V617F) above, with F617V counted along it

Compound	pIC50 [1]	pIC50 [2]	Ratio IC50 (Homo sapiens)	pIC50 [3]	pIC50 [4]
CS(=O)(=O)N1CCc2oc(-c3ccnc(Nc4ccc(OCCN5CCCC5)cc4)n3)cc2C1	6.30	6.79	3.1	5.90	–
N#CCC(=O)N1CCc2oc(-c3ccnc(Nc4ccc(N5CCOCC5)cc4)n3)cc2C1	6.85	7.88	10.6	5.26	–
N#Cc1ccc2oc(-c3nc(Nc4ccc(N5CCNCC5)cc4)ncc3C(F)(F)F)cc2c1	6.70	6.86	1.5	–	–
CN1CCN(c2ccc(Nc3nccc(-c4cc5c(o4)CCN(C(=O)CC#N)C5)n3)cc2)CC1	6.87	7.27	2.5	5.13	–
CC1CC(C)CN(c2ccc(Nc3ncc(C(F)(F)F)c(-c4cc5ccc(C#N)cc5o4)n3)cc2)C1 (stereo not drawn)	5.29	5.15	0.7	–	–
CN1CCN(c2ccc(Nc3nccc(-c4cc5c(o4)CCN(S(C)(=O)=O)C5)n3)cc2)CC1	6.69	–	–	–	–
CS(=O)(=O)N1CCc2oc(-c3ccnc(Nc4ccc(N5CCOCC5)cc4)n3)cc2C1	6.65	7.37	5.3	–	–
CS(=O)(=O)N1CCc2oc(-c3nc(Nc4ccc(OCCN5CCCC5)cc4)ncc3F)cc2C1	6.75	7.26	3.2	–	–
COc1cc(Nc2ncc(F)c(-c3cc4c(o3)CCN(S(C)(=O)=O)C4)n2)cc(OC)c1OC	6.75	8.03	18.9	–	–
Cc1cnc(Nc2ccc(N3CCOCC3)cc2)nc1-c1cc2cc(COCC(F)(F)F)ccc2o1	6.08	7.59	32.5	–	–
Cc1cnc(Nc2ccc(N3CCOCC3)cc2)nc1-c1cc2c(o1)CCN(S(C)(=O)=O)C2	7.63	9.15	33.1	5.90	7.30

Second part, the molecule after the results:

pIC50 [1]	pIC50 [2]	Ratio IC50 (Homo sapiens)	pIC50 [3]	pIC50 [4]	Compound
5.80	6.65	7	–	–	Cc1cnc(Nc2ccc(/C=C/C(=O)NO)cc2)nc1-c1cc2ccccc2o1
6.44	7.98	35	5.51	–	Cc1cnc(Nc2ccc(N3CCOCC3)cc2)nc1-c1cc2cc(C#N)ccc2o1
6.74	–	–	–	–	Cc1cnc(Nc2ccc(N3CCOCC3)cc2)nc1-c1cc2ccccc2o1
6.44	7.78	21.7	–	–	Cc1cnc(Nc2ccc(OCC(=O)O)cc2)nc1-c1cc2ccccc2o1
7.06	7.72	4.6	–	–	CCOC(=O)COc1cccc(Nc2ncc(C)c(-c3cc4ccccc4o3)n2)c1
5.92	6.49	3.7	–	–	CCOC(=O)COc1ccc(Nc2ncc(C)c(-c3cc4ccccc4o3)n2)cc1
